Data published in patent US11311513B2, “Methods, agents, and compositions for the treatment of acute myeloid leukemia” (UNIVERSITY OF CINCINNATI, priority 2017, dated 2022).

Legend:
[1] = target: STAT3 and the TET1 CpG island (Homo sapiens, UniProt P40763); assay: Electrophoretic mobility shift assay (EMSA); format: biochemical
Protocol: EMSA was conducted with EMSA Assay Kit (Signosis, Santa Clara, Calif.) according to the manufacturer's protocol with minor modifications. Briefly, purified STAT3 protein was incubated with Biotin-labeled TET1-CPG probe (hot probe) and/or cold probe, and then protein/DNA complexes were separated on a non-denaturing polyacrylamide gel. Bands were detected using Streptavidin-HRP conjugate and a chemiluminescent substrate. The sequences of the TET1-CPG probe are: Forward: 5′ Biotin-[…]-3′ (SEQ ID NO: 11); Reverse: 5′ Biotin-[…]-3′ (SEQ ID NO: 12).

[2] = tested on: MONOMAC-6, THP-1, KOCL-48 and KASUMI-1 cells; assay: MTS cell viability, four TET1-high AML cell lines together; format: cell-based
Protocol: In order to identify chemical compounds that may target TET1 signaling, the drug-sensitivity/gene expression database of a total of 20,602 chemical compounds in the NCI-60 collection of cancer cell samples was searched.
All cell lines were authenticated through STR profiling yearly.
(§1) These experiments were conducted as described previously (Jiang, X., et al., Blockade of miR-150 Maturation by MLL-Fusion/MYC/LIN-28 Is Required for MLL-Associated Leukemia, Cancer Cell 22:524-35 (2012); Li, Z., et al., miR-196b directly targets both HOXA9/MEIS1 oncogenes and FAS tumour suppressor in MLL-rearranged leukaemia, Nat Commun 2:688 (2012)) with ApoLive-Glo Multiplex Assay Kit, or CellTiter 96 AQueous Non-Radioactive Cell Proliferation Assay Kit (Promega, Madison, Wis.).

in vivo = assay: in vivo; design: species or system C57BL/6 mice; conditions: C57BL/6, mouse
Text: FIG. 17. […] Error bar indicates SD of triplicate experiments.

[3] = tested on: TET1-high AML (including MONOMAC-6, THP-1, and KASUMI-1) cells; assay: MTS viability of AML cell lines versus JAK/STAT inhibitors; format: cell-based; conditions: MTS 48 hrs; up to 500 nM
Protocol: FIG. 4. […] (a) Structures of NSC-370284 and UC-514321. […] Cells were treated with drugs at indicated doses. Cell viability was detected by MTS 48 hrs post-treatment. Error bar indicates SD of triplicate experiments. […] Secondary BMT recipient mice were transplanted with primary leukemic BM cells with MLL-AF9 (f) or AML-ETO9a (g). […] Kaplan-Meier curves are shown. The P values were determined by log-rank test. […] Secondary BMT recipient mice were transplanted with primary leukemic BM cells with MLL-AF10 or FLT3-ITD/NPM1^mut. […] Kaplan-Meier curves are shown. The P values were determined by log-rank test. (j) Wright-Giemsa staining of mouse PB and BM, or H&E staining of mouse spleen and liver of MLL-AF9 AML secondary BMT recipients with or without drug treatment.
as §1

Chain of STAT3 and the TET1 CpG island (P40763 whole entry, species assumed): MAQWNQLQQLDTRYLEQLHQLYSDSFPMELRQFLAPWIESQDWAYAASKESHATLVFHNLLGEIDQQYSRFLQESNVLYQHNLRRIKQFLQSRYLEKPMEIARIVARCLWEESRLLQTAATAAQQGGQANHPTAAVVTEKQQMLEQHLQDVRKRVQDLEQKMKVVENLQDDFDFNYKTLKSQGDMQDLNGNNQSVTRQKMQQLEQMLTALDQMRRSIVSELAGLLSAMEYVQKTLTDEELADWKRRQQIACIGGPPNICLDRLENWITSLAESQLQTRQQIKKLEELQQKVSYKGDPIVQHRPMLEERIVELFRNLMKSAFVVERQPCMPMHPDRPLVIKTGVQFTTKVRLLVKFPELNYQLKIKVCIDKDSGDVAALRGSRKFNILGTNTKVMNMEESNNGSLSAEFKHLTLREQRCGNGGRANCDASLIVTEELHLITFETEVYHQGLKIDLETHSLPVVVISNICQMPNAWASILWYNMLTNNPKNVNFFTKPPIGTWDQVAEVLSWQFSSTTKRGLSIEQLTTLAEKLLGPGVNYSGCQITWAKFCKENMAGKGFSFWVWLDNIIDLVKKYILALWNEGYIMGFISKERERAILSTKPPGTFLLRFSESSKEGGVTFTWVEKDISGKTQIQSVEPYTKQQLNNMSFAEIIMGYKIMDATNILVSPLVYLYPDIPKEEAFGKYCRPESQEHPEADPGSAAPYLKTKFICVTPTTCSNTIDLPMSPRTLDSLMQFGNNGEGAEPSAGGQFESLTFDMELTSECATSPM

## COc1cc(C(c2cc3c(cc2O)OCO3)N2CCCC2)cc(OC)c1OC (centres unmarked) [NSC-370284, 6-(1-Pyrrolidinyl(3,4,5-trimethoxyphenyl)methyl)-1,3-benzodioxol-5-ol]
[1]
  association between STAT3 and the TET1 CpG island: almost be completely blocked
[2]; 0, 50, 200, 500 nM, MTS 48 hours, among top 20 candidates
  inhibition of cell viability of all four TET1-high AML cell lines: most significant effects in inhibiting cell viability
[2]; 25 nM, 24 hours, MONOMAC-6, THP-1 and KOCL-48 cells
  cell viability at low dose, short term: very minor decrease
[2]; average over the cell lines, unit inferred
  IC50: 9.75 nM

## CC(C)(C)c1cc(C(c2cc3c(cc2O)OCO3)N2CCOCC2)cc(C(C)(C)C)c1O (centres unmarked) [UC-514321, 6-{[4-Hydroxy-3,5-bis(2-methyl-2-propanyl)phenyl](4-morpholinyl)methyl}-1,3-benzodioxol-5-ol]
In vivo
  half-life: 11 h
In vivo; ip, 15 mg/kg
  AUC(0-inf): 29400 ± 2750 ng·h/mL
  Clearance: 22.7 ± 1.3 mL/min/kg
  MRT: 16.1 ± 1.79 h
  Volume of Distribution: 21.66 ± 1.74 L/kg
  half-life: 11 ± 2.51 h
[3]
  effect in repressing viability of TET1-high AML cells compared with NSC-370284 and other JAK/STAT inhibitors: enhanced effect
